Data taken from article PMC5218480 (PLoS ONE, 2017).

Test system: MV-4-11 cells
Assay: Gene expression microarray analysis (Affymetrix PrimeView) and GSEA
Type: cell-based, human
Design: RFU PODN (11730768_x_at) / Fold change /veh PODN (11730768_x_at) / RFU LINC00158 (11744669_a_at) / Fold change /veh LINC00158 (11744669_a_at) / RFU DUSP10 (11751237_a_at) / Fold change /veh DUSP10 (11751237_a_at) / RFU ID3 (11757404_x_at) / Fold change /veh ID3 (11757404_x_at) / RFU PLEKHG5 (11737974_s_at) / Fold change /veh PLEKHG5 (11737974_s_at) / RFU LRRC4B (11730491_at) / Fold change /veh LRRC4B (11730491_at) / RFU GIMAP4 (11747438_a_at) / Fold change /veh GIMAP4 (11747438_a_at) / RFU KRT8 (11758183_x_at) / Fold change /veh KRT8 (11758183_x_at) / RFU CNN1 (11734310_a_at) / Fold change /veh CNN1 (11734310_a_at) / RFU VPS37D (11726825_at) / Fold change /veh VPS37D (11726825_at) / RFU C10orf10 (11716522_x_at) / Fold change /veh C10orf10 (11716522_x_at) / RFU KIR2DL2 /// KIR2DL4 /// KIR2DL5A /// KIR2DL5B /// KIR2DS1 /// KIR2DS2 /// KIR2DS3 /// KIR2DS4 /// KIR3DL3 /// KIR3DL3 /// KIR3DS1 (11738374_at) / Fold change /veh KIR2DL2 /// KIR2DL4 /// KIR2DL5A /// KIR2DL5B /// KIR2DS1 /// KIR2DS2 /// KIR2DS3 /// KIR2DS4 /// KIR3DL3 /// KIR3DL3 /// KIR3DS1 (11738374_at) / RFU C1QL1 (11718748_at) / Fold change /veh C1QL1 (11718748_at) / RFU TMPRSS4 (11747572_a_at) / Fold change /veh TMPRSS4 (11747572_a_at) / RFU HAMP (11756126_x_at) / Fold change /veh HAMP (11756126_x_at) / RFU RNFT2 (11725882_a_at) / Fold change /veh RNFT2 (11725882_a_at) / RFU NR4A2 (11747474_a_at) / Fold change /veh NR4A2 (11747474_a_at) / RFU ABCC12 (11746883_a_at) / Fold change /veh ABCC12 (11746883_a_at) / RFU TMEM136 (11760407_x_at) / Fold change /veh TMEM136 (11760407_x_at) / RFU CLDN22 /// WWC2 (11732394_at) / Fold change /veh CLDN22 /// WWC2 (11732394_at) / RFU HLA-DPB1 (11760878_x_at) / Fold change /veh HLA-DPB1 (11760878_x_at) / RFU SPINT1 (11716480_a_at) / Fold change /veh SPINT1 (11716480_a_at) / RFU GAP43 (11754022_s_at) / Fold change /veh GAP43 (11754022_s_at) / RFU A4GNT (11735810_at) / Fold change /veh A4GNT (11735810_at) / RFU PRB3 (11715151_x_at) / Fold change /veh PRB3 (11715151_x_at) / RFU TUBB4B (11761932_at) / Fold change /veh TUBB4B (11761932_at) / RFU CAPN14 (11732068_a_at) / Fold change /veh CAPN14 (11732068_a_at) / RFU TMCC2 (11721928_a_at) / Fold change /veh TMCC2 (11721928_a_at) / RFU IRGQ (11745062_a_at) / Fold change /veh IRGQ (11745062_a_at) / RFU FAM174B (11720279_a_at) / Fold change /veh FAM174B (11720279_a_at) / RFU TMPRSS4 (11748680_a_at) / Fold change /veh TMPRSS4 (11748680_a_at) / RFU FAM212B (11763350_a_at) / Fold change /veh FAM212B (11763350_a_at) / RFU PLEKHG5 (11743358_a_at) / Fold change /veh PLEKHG5 (11743358_a_at) / RFU ZSCAN30 (11745921_a_at) / Fold change /veh ZSCAN30 (11745921_a_at) / RFU CMKLR1 (11741424_a_at) / Fold change /veh CMKLR1 (11741424_a_at) / RFU LOC101060620 /// MAPK8IP1 (11723275_at) / Fold change /veh LOC101060620 /// MAPK8IP1 (11723275_at) / RFU SPTSSB (11747773_x_at) / Fold change /veh SPTSSB (11747773_x_at) / RFU PRSS12 (11739890_at) / Fold change /veh PRSS12 (11739890_at) / RFU BIN1 (11741810_x_at) / Fold change /veh BIN1 (11741810_x_at) / RFU WNT11 (11732464_a_at) / Fold change /veh WNT11 (11732464_a_at) / RFU C10orf10 (11716521_a_at) / Fold change /veh C10orf10 (11716521_a_at) / RFU C5orf56 (11738089_at) / Fold change /veh C5orf56 (11738089_at) / RFU CYB561 (11721691_x_at) / Fold change /veh CYB561 (11721691_x_at) / RFU ANKRD19P (11752326_a_at) / Fold change /veh ANKRD19P (11752326_a_at) / RFU OR2T12 /// OR2T33 /// OR2T8 (11738714_s_at) / Fold change /veh OR2T12 /// OR2T33 /// OR2T8 (11738714_s_at) / RFU VCAN (11748164_a_at) / Fold change /veh VCAN (11748164_a_at) / RFU JSRP1 (11732532_at) / Fold change /veh JSRP1 (11732532_at) / RFU KRTAP10-11 (11738290_x_at) / Fold change /veh KRTAP10-11 (11738290_x_at) / RFU MYO3A (11730013_a_at) / Fold change /veh MYO3A (11730013_a_at) / RFU EBF3 (11725865_a_at) / Fold change /veh EBF3 (11725865_a_at) / RFU CAMK2N1 (11719241_x_at) / Fold change /veh CAMK2N1 (11719241_x_at) / RFU C5orf56 (11738088_a_at) / Fold change /veh C5orf56 (11738088_a_at) / RFU OLFML3 (11715873_a_at) / Fold change /veh OLFML3 (11715873_a_at) / RFU LOC100653217 /// NTM (11731650_a_at) / Fold change /veh LOC100653217 /// NTM (11731650_a_at) / RFU MAPK11 (11762145_a_at) / Fold change /veh MAPK11 (11762145_a_at) / RFU FIZ1 (11724087_x_at) / Fold change /veh FIZ1 (11724087_x_at) / RFU OASL (11726364_x_at) / Fold change /veh OASL (11726364_x_at) / RFU SOX15 (11748057_x_at) / Fold change /veh SOX15 (11748057_x_at) / RFU CD79A (11719716_a_at) / Fold change /veh CD79A (11719716_a_at) / RFU HIST1H1D (11736915_at) / Fold change /veh HIST1H1D (11736915_at) / RFU CASKIN2 (11723855_a_at) / Fold change /veh CASKIN2 (11723855_a_at) / RFU LOC730098 (11760151_x_at) / Fold change /veh LOC730098 (11760151_x_at) / RFU OR4N2 (11742367_at) / Fold change /veh OR4N2 (11742367_at) / RFU PRRT2 (11749266_a_at) / Fold change /veh PRRT2 (11749266_a_at) / RFU SNX32 (11753110_a_at) / Fold change /veh SNX32 (11753110_a_at) / RFU CDHR5 (11726645_a_at) / Fold change /veh CDHR5 (11726645_a_at) / RFU RCAN1 (11760418_a_at) / Fold change /veh RCAN1 (11760418_a_at) / RFU FAM167A (11723789_a_at) / Fold change /veh FAM167A (11723789_a_at) / RFU FAM26E (11764081_at) / Fold change /veh FAM26E (11764081_at) / RFU ISYNA1 (11749810_s_at) / Fold change /veh ISYNA1 (11749810_s_at) / RFU ACY1 (11761880_at) / Fold change /veh ACY1 (11761880_at) / RFU 11764098_at / Fold change /veh 11764098_at / RFU SAMD14 (11745864_x_at) / Fold change /veh SAMD14 (11745864_x_at) / RFU NPB (11741838_a_at) / Fold change /veh NPB (11741838_a_at) / RFU TMPRSS6 (11731388_a_at) / Fold change /veh TMPRSS6 (11731388_a_at) / RFU KRTAP10-2 (11738614_at) / Fold change /veh KRTAP10-2 (11738614_at) / RFU ARHGAP8 /// PRR5-ARHGAP8 (11727945_x_at) / Fold change /veh ARHGAP8 /// PRR5-ARHGAP8 (11727945_x_at) / RFU KRTAP5-7 /// NADSYN1 (11734609_at) / Fold change /veh KRTAP5-7 /// NADSYN1 (11734609_at) / RFU RASL12 (11751679_a_at) / Fold change /veh RASL12 (11751679_a_at) / RFU CDKN2B (11736163_a_at) / Fold change /veh CDKN2B (11736163_a_at) / RFU PRF1 (11729649_at) / Fold change /veh PRF1 (11729649_at) / RFU, ZNF638 /// ZNF638-IT1 / Fold change vs veh, ZNF638 /// ZNF638-IT1 / RFU, PANK3 / Fold change vs veh, PANK3 / RFU, SH3YL1 / Fold change vs veh, SH3YL1 / RFU, ZEB2 / Fold change vs veh, ZEB2 / RFU, NRIP1 / Fold change vs veh, NRIP1 / RFU, PTTG1IP / Fold change vs veh, PTTG1IP / RFU, CAPN2 / Fold change vs veh, CAPN2 / RFU, MED14 / Fold change vs veh, MED14 / RFU, SNORA58 / Fold change vs veh, SNORA58 / RFU, C1orf63 / Fold change vs veh, C1orf63 / RFU, LRRFIP1 / Fold change vs veh, LRRFIP1 / RFU, NDUFAF7 / Fold change vs veh, NDUFAF7 / RFU, SLC12A2 / Fold change vs veh, SLC12A2 / RFU, IBTK / Fold change vs veh, IBTK / RFU, ESF1 / Fold change vs veh, ESF1 / Fold change vs veh, TMEM50B / RFU, TAOK1 / Fold change vs veh, TAOK1 / RFU, ACBD3 / Fold change vs veh, ACBD3 / RFU, TMA16 / Fold change vs veh, TMA16 / RFU, RWDD3 / Fold change vs veh, RWDD3 / RFU, BCAT1 / Fold change vs veh, BCAT1 / RFU, EDEM3 / Fold change vs veh, EDEM3 / RFU, TMEM33 / Fold change vs veh, TMEM33 / RFU, WDR75 / Fold change vs veh, WDR75 / RFU, AHCTF1 / Fold change vs veh, AHCTF1 / RFU, TFRC / Fold change vs veh, TFRC / RFU, ZDHHC17 / Fold change vs veh, ZDHHC17 / RFU, NOM1 / Fold change vs veh, NOM1 / RFU, ARL8B / Fold change vs veh, ARL8B / RFU, ZBTB11 / Fold change vs veh, ZBTB11 / RFU, TAMM41 / Fold change vs veh, TAMM41 / RFU, KIAA1704 /// LOC100996395 / Fold change vs veh, KIAA1704 /// LOC100996395 / RFU, ING1 / Fold change vs veh, ING1 / RFU, TRMT61B / Fold change vs veh, TRMT61B / RFU, FUBP3 / Fold change vs veh, FUBP3 / RFU, TP53 / Fold change vs veh, TP53 / RFU, TNKS2 / Fold change vs veh, TNKS2 / RFU, ZFP14 / Fold change vs veh, ZFP14 / RFU, ACTR2 / Fold change vs veh, ACTR2 / RFU, PPP3R1 / Fold change vs veh, PPP3R1 / RFU, PIK3R1 / Fold change vs veh, PIK3R1 / RFU, HNRNPA1 / Fold change vs veh, HNRNPA1 / RFU, RNF170 / Fold change vs veh, RNF170 / RFU, ZNF28 / Fold change vs veh, ZNF28 / RFU, RNGTT / Fold change vs veh, RNGTT / RFU, OGT / Fold change vs veh, OGT / RFU, BRD1 / Fold change vs veh, BRD1 / RFU, MARS / Fold change vs veh, MARS / RFU, ZNF655 / Fold change vs veh, ZNF655 / RFU, FAHD1 / Fold change vs veh, FAHD1 / RFU, BDP1 / Fold change vs veh, BDP1 / RFU, LRRCC1 / Fold change vs veh, LRRCC1 / RFU, ARID1A / Fold change vs veh, ARID1A / RFU, ZNF146 / Fold change vs veh, ZNF146 / RFU, ZNF330 / Fold change vs veh, ZNF330 / RFU, GPN3 / Fold change vs veh, GPN3 / RFU, C9orf123 / Fold change vs veh, C9orf123 / RFU, N4BP2L2 / Fold change vs veh, N4BP2L2 / RFU, ARFIP1 / Fold change vs veh, ARFIP1 / RFU, FAM179B / Fold change vs veh, FAM179B / RFU, BCL10 / Fold change vs veh, BCL10 / RFU, UHRF1BP1L / Fold change vs veh, UHRF1BP1L / RFU, BET1 / Fold change vs veh, BET1 / RFU, CNOT2 / Fold change vs veh, CNOT2 / RFU, ZNF268 / Fold change vs veh, ZNF268 / Fold change vs veh, ZNF507 / RFU, DGCR2 / Fold change vs veh, DGCR2 / RFU, WDSUB1 / Fold change vs veh, WDSUB1 / Fold change vs veh, HSP90B1 /// MIR3652 / RFU, ADSS / Fold change vs veh, ADSS / RFU, GK / Fold change vs veh, GK / RFU, ZNF148 / Fold change vs veh, ZNF148 / RFU, TAF9 / Fold change vs veh, TAF9 / RFU, SLC1A5 / Fold change vs veh, SLC1A5 / RFU, SLMO2 / Fold change vs veh, SLMO2 / RFU, ABCC4 / Fold change vs veh, ABCC4 / RFU, LOC101060439 /// RAP1B / Fold change vs veh, LOC101060439 /// RAP1B / RFU, RFX7 / Fold change vs veh, RFX7 / RFU, GTPBP10 / Fold change vs veh, GTPBP10 / RFU, CNEP1R1 / Fold change vs veh, CNEP1R1 / RFU, BIVM-ERCC5 /// ERCC5 / Fold change vs veh, BIVM-ERCC5 /// ERCC5 / RFU, ILF3 / Fold change vs veh, ILF3 / RFU 11762660_at / Fold change /veh 11762660_at / RFU VCAN (11757783_s_at) / Fold change /veh VCAN (11757783_s_at) / RFU DDX43 (11728927_at) / Fold change /veh DDX43 (11728927_at) / RFU KRT8 (11758188_x_at) / Fold change /veh KRT8 (11758188_x_at) / RFU NKD1 (11759106_at) / Fold change /veh NKD1 (11759106_at) / RFU SRD5A1 (11742802_a_at) / Fold change /veh SRD5A1 (11742802_a_at) / RFU TPSAB1 /// TPSB2 (11721975_s_at) / Fold change /veh TPSAB1 /// TPSB2 (11721975_s_at) / RFU GSTM3 (11746129_a_at) / Fold change /veh GSTM3 (11746129_a_at) / RFU IL23R (11737362_x_at) / Fold change /veh IL23R (11737362_x_at) / RFU TMEM51 (11727254_a_at) / Fold change /veh TMEM51 (11727254_a_at) / RFU PIWIL2 (11732686_x_at) / Fold change /veh PIWIL2 (11732686_x_at) / RFU ORM1 (11744905_x_at) / Fold change /veh ORM1 (11744905_x_at) / RFU CCDC152 (11743942_at) / Fold change /veh CCDC152 (11743942_at) / RFU ECM1 (11717891_a_at) / Fold change /veh ECM1 (11717891_a_at) / RFU IL23R (11748794_a_at) / Fold change /veh IL23R (11748794_a_at) / RFU TNFAIP8L3 (11732012_x_at) / Fold change /veh TNFAIP8L3 (11732012_x_at) / RFU MBOAT4 (11741988_at) / Fold change /veh MBOAT4 (11741988_at) / RFU 11764193_at / Fold change /veh 11764193_at / RFU TMEM53 (11763286_at) / Fold change /veh TMEM53 (11763286_at) / RFU MAGEB2 (11727129_at) / Fold change /veh MAGEB2 (11727129_at) / RFU TMEM200A (11744735_a_at) / Fold change /veh TMEM200A (11744735_a_at) / RFU CCDC152 (11751479_a_at) / Fold change /veh CCDC152 (11751479_a_at) / RFU FAM211A (11726209_a_at) / Fold change /veh FAM211A (11726209_a_at) / RFU RGS16 (11746705_a_at) / Fold change /veh RGS16 (11746705_a_at) / RFU VCAN (11755009_s_at) / Fold change /veh VCAN (11755009_s_at) / RFU RHOB (11743442_s_at) / Fold change /veh RHOB (11743442_s_at) / RFU RGS16 (11720943_a_at) / Fold change /veh RGS16 (11720943_a_at) / RFU RGS16 (11720944_at) / Fold change /veh RGS16 (11720944_at) / RFU, VPS4B / Fold change vs veh, VPS4B / RFU, CREB1 / Fold change vs veh, CREB1 / RFU, DNAJC13 / Fold change vs veh, DNAJC13 / RFU, GNAQ / Fold change vs veh, GNAQ / RFU, CDK5R1 / Fold change vs veh, CDK5R1 / RFU, ZRANB3 / Fold change vs veh, ZRANB3 / RFU, CUL4A / Fold change vs veh, CUL4A / RFU, CCNY / Fold change vs veh, CCNY / RFU, UFL1 / Fold change vs veh, UFL1 / RFU, COG3 / Fold change vs veh, COG3 / RFU, DIAPH2 / Fold change vs veh, DIAPH2 / RFU, SKA2 / Fold change vs veh, SKA2 / RFU, AFF3 / Fold change vs veh, AFF3 / RFU, LMF1 / Fold change vs veh, LMF1 / RFU, IPO11 / Fold change vs veh, IPO11 / RFU, DFFB / Fold change vs veh, DFFB / RFU, FOXP1 / Fold change vs veh, FOXP1 / RFU, CARD8 / Fold change vs veh, CARD8 / RFU, STRN3 / Fold change vs veh, STRN3 / RFU, ADK / Fold change vs veh, ADK / RFU, RASSF2 / Fold change vs veh, RASSF2 / RFU, WIPF1 / Fold change vs veh, WIPF1 / RFU, LARP1B / Fold change vs veh, LARP1B / RFU, RASA1 / Fold change vs veh, RASA1 / RFU, RB1 / Fold change vs veh, RB1 / RFU, PPFIA1 / Fold change vs veh, PPFIA1 / RFU, MAT2A / Fold change vs veh, MAT2A / RFU, CCT5 / Fold change vs veh, CCT5 / RFU, WDR92 / Fold change vs veh, WDR92 / RFU, CUX1 / Fold change vs veh, CUX1 / RFU, TTC7A / Fold change vs veh, TTC7A / RFU, TMEM135 / Fold change vs veh, TMEM135 / RFU, DEPTOR / Fold change vs veh, DEPTOR / RFU, CPM / Fold change vs veh, CPM / RFU, DNAJB6 / Fold change vs veh, DNAJB6 / RFU, CACNA2D3 / Fold change vs veh, CACNA2D3 / RFU, DTX4 / Fold change vs veh, DTX4 / RFU, TFCP2 / Fold change vs veh, TFCP2 / RFU, GMCL1 /// GMCL1P1 / Fold change vs veh, GMCL1 /// GMCL1P1 / RFU, AEBP2 / Fold change vs veh, AEBP2 / RFU, SNHG1 /// SNORD22 /// SNORD25 /// SNORD26 /// SNORD27 /// SNORD28 /// SNORD29 /// SNORD31 / Fold change vs veh, SNHG1 /// SNORD22 /// SNORD25 /// SNORD26 /// SNORD27 /// SNORD28 /// SNORD29 /// SNORD31 / Fold change (Aza/veh), C12orf56 (ProbeSet 11735607_a_at) / Fold change (ACY-1035/veh), C12orf56 (ProbeSet 11735607_a_at) / Fold change (Aza/veh), FGFR1OP (ProbeSet 11751329_s_at) / Fold change (ACY-1035/veh), FGFR1OP (ProbeSet 11751329_s_at) / Fold change (Aza/veh), VPS36 (ProbeSet 11739960_a_at) / Fold change (ACY-1035/veh), VPS36 (ProbeSet 11739960_a_at) / RFU SYPL1 (11715823_x_at) / Fold change /veh SYPL1 (11715823_x_at) / RFU IGFBP7 (11715501_s_at) / Fold change /veh IGFBP7 (11715501_s_at) / RFU REEP3 (11722064_at) / Fold change /veh REEP3 (11722064_at) / RFU IGLL1 (11728026_x_at) / Fold change /veh IGLL1 (11728026_x_at): dose or concentration left out as unconfirmed
Conditions: MV-4-11 cells, 48 hours

Nc1ncn([C@@H]2O[C@H](CO)[C@@H](O)[C@H]2O)c(=O)n1 [azacitidine]
Fold change /veh RASL12 (11751679_a_at): 0.96
